Assay results as given in patent publication US8114886B2, “Pyridylmethylsulfone derivative” (Daiichi Sankyo Company, Limited, priority 2005, dated 2012).

What follows are compounds tested on β-amyloid protein (Aβ) secreted by E35 cells (H4 cells with APP751 gene) (assay: Screening system using E35 cells for inhibition of production/secretion of β-amyloid protein (sandwich ELISA of Aβ in culture medium)). Details: Homo sapiens, 24 hours with compound, Aβ in culture supernatant by ELISA, read-out: Inhibitory Activity for Production of A(EC50).
Format: cell-based, human
Description: The activity of the compound inhibiting β-amyloid protein production was measured on E35 cells prepared by introducing APP751 gene, a gene of a human wild type β-amyloid protein precursor protein, to human glioma cells (H4 cells), by quantifying the amount of β-amyloid protein (Aβ) secreted to the culture medium by means of a sandwich type Enzyme-Linked Immunosorbent Assay (ELISA) method.
That is, E35 cells inoculated on a 96-well plate were cultured in an incubator at 37° C. which was maintained at equilibrium with 5% carbon dioxide, using Dulbecco's Modified Eagle's Medium containing inactivated 10% fetal bovine serum as the culture medium. After 24 hours from the inoculation, a test compound dissolved in a DMSO solution was added. The DMSO solution of the test compound was prepared at a concentration of 2000 times of the final concentration, such that the DMSO concentration in the culture medium would be 0.05%. After culturing for another 24 hours, the culture supernatant was recovered, and this was added to a 96-well plate for ELISA onto which a monoclonal antibody against Aβ, 25-1, was solid-phased. The plate was incubated at 4° C. for 16 to 20 hours. The plate was washed with phosphate buffer solution (pH 7.4), and then a biotinylated monoclonal antibody against Aβ, MA32-40, was added thereto. The plate was left to stand at 4° C. for 2 hours. The plate was washed again with phosphate buffer solution, and then alkaline phosphatase-conjugated streptavidin was added to conjugate streptavidin to biotin. Subsequently, the plate was washed with phosphate buffer solution. To this, Blue Phos (Kirkegaard & Perry Laboratories, Inc.) was added. After incubating the plate for an appropriate time, the reaction was terminated with an acid, and the absorbance for each well was measured. The amount of Aβ contained in the culture supernatant was determined from a calibration curve which was produced separately, and the amount was compared with that of control cells to which the compound was not added. Thus, the concentration at which 50% of the Aβ production is inhibited (EC50 value) was calculated. In addition, the 25-1 antibody and MA32-40 antibody used in ELISA were mouse monoclonal antibodies derived from the hybridoma cell clone lines, which were each produced and selected according to a standard method using Aβ25-35 and Aβ1-8 as antigens, respectively, and which specifically recognize their respective antigens. […]
The scores indicate ++++ for the case where EC50 was 5 nM or less; +++ for the case where EC50 was 5 to 50 nM; ++ for the case where EC50 was 50 to 500 nM; and + for the case where EC50 was 500 nM to 5 μM.

First: Cc1cc(C(N)=O)ncc1C(c1c(F)ccc(F)c1F)[S+]([O-])c1ccc(F)cc1 (centres unmarked) [Example 38, 5-[[(4-Fluorophenyl)sulfinyl](2,3,6-trifluorophenyl)methyl]-4-methylpyridine-2-carboxamide]
Second: Cc1cc(C(=O)N(C)C)ncc1C(c1c(F)ccc(F)c1F)[S+]([O-])c1ccc(F)cc1 (centres unmarked) [Example 36B, 5-[[(4-fluorophenyl)sulfinyl](2,3,6-trifluorophenyl)methyl]-N,N,4-trimethylpyridine-2-carboxamide]
The EC50 of the first is lower: 5 to 50 nM for the first, 500 to 5000 nM for the second.

Cc1cc(C(=O)NCCO)ncc1C(c1cc(F)ccc1F)S(=O)(=O)c1ccccc1 (centres unmarked) [Example 59, 5-[(2,5-Difluorophenyl)(phenylsulfonyl)methyl]-N-(2-hydroxyethyl)-4-methylpyridine-2-carboxamide] and Cc1ccc(S(=O)(=O)C(c2cnc(C(=O)NCCO)cc2C)c2cc(F)ccc2F)cc1 (centres unmarked) [Example 63, 5-[(2,5-Difluorophenyl)[(4-methylphenyl)sulfonyl]methyl]-N-(2-hydroxyethyl)-4-methylpyridine-2-carboxamide] cannot be ordered by EC50: 5 to 50 nM for the first, ≤ 5 nM for the second.

Cc1cc(C(N)=O)ncc1C(c1cc(F)ccc1F)S(=O)(=O)c1ccc(F)cc1 (centres unmarked) [Example 15, 5-[(2,5-Difluorophenyl)[(4-fluorophenyl)sulfonyl]methyl]-4-methylpyridine-2-carboxamide] and Cc1cc(C(N)=O)ncc1C(c1c(F)ccc(F)c1F)S(=O)(=O)c1ccc(F)cc1 (centres unmarked) [Example 39, 5-[[(4-Fluorophenyl)sulfonyl](2,3,6-trifluorophenyl)methyl]-4-methylpyridine-2-carboxamide] cannot be ordered by EC50: ≤ 5 nM for the first, ≤ 5 nM for the second.

First: Cc1cc(C(N)=O)ncc1C(c1cc(F)ccc1F)S(=O)(=O)c1ccc(C(F)(F)F)nc1 (centres unmarked) [Example 32, 5-[(2,5-Difluorophenyl)[[6-(trifluoromethyl)pyridin-3-yl]sulfonyl]methyl]-4-methylpyridine-2-carboxamide]
Second: Cc1cc(C(=O)N(C)C)ncc1C(c1cc(F)ccc1F)S(=O)(=O)c1ccc(C(F)(F)F)nc1 (centres unmarked) [Example 28A, 5-[(2,5-Difluorophenyl) [[6-(trifluoromethyl)pyridin-3-yl]sulfonyl]methyl]-N,N,4-trimethylpyridine-2-carboxamide]
The EC50 of the first is lower: 5 to 50 nM for the first, 500 to 5000 nM for the second.

Cc1cc(S(=O)(=O)C(c2cnc(C(=O)NCCO)cc2C)c2cc(F)ccc2F)ccc1F (centres unmarked) [Example 71, 5-[(2,5-Difluorophenyl)[(4-fluoro-3-methylphenyl)sulfonyl]methyl]-N-(2-hydroxyethyl)-4-methylpyridine-2-carboxamide] and Cc1cc(S(=O)(=O)C(c2cnc(C(=O)NCCO)cc2C)c2cc(F)ccc2F)ccc1Cl (centres unmarked) [Example 67, 5-[[(4-Chloro-3-methylphenyl)sulfonyl](2,5-difluorophenyl)methyl]-N-(2-hydroxyethyl)-4-methylpyridine-2-carboxamide] cannot be ordered by EC50: 5 to 50 nM for the first, ≤ 5 nM for the second.

Cc1cc(C(=O)NCCO)ncc1C(c1cc(F)ccc1F)S(=O)(=O)c1ccc(C(F)(F)F)nc1 (centres unmarked) [Example 30, 5-[(2,5-Difluorophenyl) [[6-(trifluoromethyl)pyridin-3-yl]sulfonyl]methyl]-N-(2-hydroxyethyl)-4-methylpyridine-2-carboxamide] and CC(=O)NCCNC(=O)c1cc(C)c(C(c2cc(F)ccc2F)S(=O)(=O)c2ccc(F)cc2)cn1 (centres unmarked) [Example 83, N-[2-(acetylamino)ethyl]-5-[(2,5-difluorophenyl)[(4-fluorophenyl)sulfonyl]methyl]-4-methylpyridine-2-carboxamide] cannot be ordered by EC50: ≤ 5 nM for the first, ≤ 5 nM for the second.

First: Cc1cc(C(N)=O)ncc1C(c1c(F)ccc(F)c1F)S(=O)(=O)c1ccccc1 (centres unmarked) [Example 105, 4-Methyl-5-[(phenylsulfonyl)(2,3,6-trifluorophenyl)methyl]pyridine-2-carboxamide]
Second: Cc1cc(C(=O)N(C)C)ncc1C(c1cc(F)ccc1F)[S+]([O-])c1ccc(C(F)(F)F)nc1 (centres unmarked) [Example 28B, 5-[(2,5-difluorophenyl)[[6-(trifluoromethyl)pyridin-3-yl]sulfinyl]methyl]-N,N,4-trimethylpyridine-2-carboxamide]
The EC50 of the first is lower: ≤ 5 nM for the first, 500 to 5000 nM for the second.
